Laboratory results as given in ChEMBL document CHEMBL3885861, “Open TG-GATES”.

Species on record: Rattus norvegicus
Assay: Open TG-GATES - Regimen: Daily Repeat
Type: toxicity, organism-based, Sprague-Dawley
Design: regimen Daily Repeat, gender Male, age 6 weeks
Conditions: in vivo, po, 0 mg/kg, route gavage, dose level Control; for APTT / Bas / Eos / Fbg / Hb / Ht / Lym / MCH / MCHC / MCV / Mono / Neu / PT / Plat / RBC / Ret / WBC: tissue Blood; for KIDNEY_L / KIDNEY_R / KIDNEY_TOTAL: tissue Kidney; for LIVER: tissue Liver; for A/G / ALP / ALT / AST / BUN / CRE / Ca / Cl / DBIL / GLC / IP / K / LDH / Na / PL / RALB / TBIL / TC / TG / TP / gamma-GTP: tissue Plasma

O=C1CN(/N=C/c2ccc([N+](=O)[O-])o2)C(=O)N1 [NITROFURANTOIN]
TERMINAL_BW (72 h, time 3 day): 244.1 g
APTT (72 h, time 3 day): 19.2 s
Bas (72 h, time 3 day): 0%
Eos (72 h, time 3 day): 1%
Fbg (72 h, time 3 day): 219 mg/dL
Hb (72 h, time 3 day): 13.7 g/dL
Ht (72 h, time 3 day): 39.1%
Lym (72 h, time 3 day): 80.6%
MCH (72 h, time 3 day): 22 pg
MCHC (72 h, time 3 day): 35.1%
MCV (72 h, time 3 day): 62.8 fL
Mono (72 h, time 3 day): 3%
Neu (72 h, time 3 day): 13.8%
PT (72 h, time 3 day): 12.3 s
Plat (72 h, time 3 day): 134.3 x10_4/uL
RBC (72 h, time 3 day): 622.8 x10_4/ul
Ret (72 h, time 3 day): 6.3%
WBC (72 h, time 3 day): 116.2 x10_2/uL
KIDNEY_L (72 h, time 3 day): 1 g
KIDNEY_R (72 h, time 3 day): 1.1 g
KIDNEY_TOTAL (72 h, time 3 day): 2.1 g
LIVER (72 h, time 3 day): 12.1 g
A/G (72 h, time 3 day): 1.5
ALP (72 h, time 3 day): 885 IU/L
ALT (72 h, time 3 day): 35.6 IU/L
AST (72 h, time 3 day): 68.6 IU/L
BUN (72 h, time 3 day): 16.2 mg/dL
CRE (72 h, time 3 day): 0.4 mg/dL
Ca (72 h, time 3 day): 10.8 mg/dL
Cl (72 h, time 3 day): 101 meq/L
DBIL (72 h, time 3 day): 0.1 mg/dL
GLC (72 h, time 3 day): 233.2 mg/dL
IP (72 h, time 3 day): 7.2 mg/dL
K (72 h, time 3 day): 3.7 meq/L
LDH (72 h, time 3 day): 200.8 IU/L
Na (72 h, time 3 day): 140 meq/L
PL (72 h, time 3 day): 166.6 mg/dL
RALB (72 h, time 3 day): 3.4 g/dL
TBIL (72 h, time 3 day): 0.2 mg/dL
TC (72 h, time 3 day): 77.6 mg/dL
TG (72 h, time 3 day): 139.8 mg/dL
TP (72 h, time 3 day): 5.6 g/dL
gamma-GTP (72 h, time 3 day): 1 IU/L
TERMINAL_BW ([…], time 7 day): 274 g
TERMINAL_BW ([…], time 14 day): 331.5 g
TERMINAL_BW ([…], time 28 day): 422.1 g
APTT ([…], time 7 day): 19.9 s
Bas ([…], time 7 day): 0%
Eos ([…], time 7 day): 0.8%
Fbg ([…], time 7 day): 227.8 mg/dL
Hb ([…], time 7 day): 14.1 g/dL
Ht ([…], time 7 day): 40.2%
Lym ([…], time 7 day): 80.6%
MCH ([…], time 7 day): 21.5 pg
MCHC ([…], time 7 day): 35.2%
MCV ([…], time 7 day): 61.2 fL
Mono ([…], time 7 day): 2.6%
Neu ([…], time 7 day): 14.6%
PT ([…], time 7 day): 12.5 s
Plat ([…], time 7 day): 135 x10_4/uL
RBC ([…], time 7 day): 657.2 x10_4/ul
Ret ([…], time 7 day): 5.4%
WBC ([…], time 7 day): 123.7 x10_2/uL
APTT ([…], time 14 day): 20.1 s
Bas ([…], time 14 day): 0%
Eos ([…], time 14 day): 0.6%
Fbg ([…], time 14 day): 227.4 mg/dL
Hb ([…], time 14 day): 14.6 g/dL
Ht ([…], time 14 day): 41.5%
Lym ([…], time 14 day): 77.4%
MCH ([…], time 14 day): 20.3 pg
MCHC ([…], time 14 day): 35.1%
MCV ([…], time 14 day): 57.7 fL
Mono ([…], time 14 day): 1.8%
Neu ([…], time 14 day): 18.8%
PT ([…], time 14 day): 12.3 s
Plat ([…], time 14 day): 117.4 x10_4/uL
RBC ([…], time 14 day): 718.6 x10_4/ul
Ret ([…], time 14 day): 4.4%
WBC ([…], time 14 day): 127.2 x10_2/uL
APTT ([…], time 28 day): 21.4 s
Bas ([…], time 28 day): 0%
Eos ([…], time 28 day): 1%
Fbg ([…], time 28 day): 227 mg/dL
Hb ([…], time 28 day): 15 g/dL
Ht ([…], time 28 day): 42.7%
Lym ([…], time 28 day): 84%
MCH ([…], time 28 day): 19.8 pg
MCHC ([…], time 28 day): 35%
MCV ([…], time 28 day): 56.4 fL
Mono ([…], time 28 day): 1.6%
Neu ([…], time 28 day): 12.4%
PT ([…], time 28 day): 12.4 s
Plat ([…], time 28 day): 107.4 x10_4/uL
RBC ([…], time 28 day): 757.4 x10_4/ul
Ret ([…], time 28 day): 2.4%
WBC ([…], time 28 day): 107.5 x10_2/uL
KIDNEY_L ([…], time 7 day): 1.2 g
KIDNEY_R ([…], time 7 day): 1.2 g
KIDNEY_TOTAL ([…], time 7 day): 2.4 g
KIDNEY_L ([…], time 14 day): 1.3 g
KIDNEY_R ([…], time 14 day): 1.3 g
KIDNEY_TOTAL ([…], time 14 day): 2.6 g
KIDNEY_L ([…], time 28 day): 1.5 g
KIDNEY_R ([…], time 28 day): 1.5 g
KIDNEY_TOTAL ([…], time 28 day): 2.9 g
LIVER ([…], time 7 day): 13 g
LIVER ([…], time 14 day): 14.5 g
LIVER ([…], time 28 day): 17.7 g
A/G ([…], time 7 day): 1.5
ALP ([…], time 7 day): 943.4 IU/L
ALT ([…], time 7 day): 32.8 IU/L
AST ([…], time 7 day): 63.2 IU/L
BUN ([…], time 7 day): 16.4 mg/dL
CRE ([…], time 7 day): 0.4 mg/dL
Ca ([…], time 7 day): 10.8 mg/dL
Cl ([…], time 7 day): 101 meq/L
DBIL ([…], time 7 day): 0.1 mg/dL
GLC ([…], time 7 day): 192.8 mg/dL
IP ([…], time 7 day): 6.9 mg/dL
K ([…], time 7 day): 4.4 meq/L
LDH ([…], time 7 day): 238.6 IU/L
Na ([…], time 7 day): 139.8 meq/L
PL ([…], time 7 day): 166.8 mg/dL
RALB ([…], time 7 day): 3.5 g/dL
TBIL ([…], time 7 day): 0.2 mg/dL
TC ([…], time 7 day): 79.4 mg/dL
TG ([…], time 7 day): 141 mg/dL
TP ([…], time 7 day): 5.8 g/dL
gamma-GTP ([…], time 7 day): 0.6 IU/L
A/G ([…], time 14 day): 1.4
ALP ([…], time 14 day): 818 IU/L
ALT ([…], time 14 day): 34.4 IU/L
AST ([…], time 14 day): 60.6 IU/L
BUN ([…], time 14 day): 16.6 mg/dL
CRE ([…], time 14 day): 0.4 mg/dL
Ca ([…], time 14 day): 10.4 mg/dL
Cl ([…], time 14 day): 101.6 meq/L
DBIL ([…], time 14 day): 0.1 mg/dL
GLC ([…], time 14 day): 218.2 mg/dL
IP ([…], time 14 day): 6.7 mg/dL
K ([…], time 14 day): 3.7 meq/L
LDH ([…], time 14 day): 189.6 IU/L
Na ([…], time 14 day): 140 meq/L
PL ([…], time 14 day): 153.2 mg/dL
RALB ([…], time 14 day): 3.4 g/dL
TBIL ([…], time 14 day): 0.2 mg/dL
TC ([…], time 14 day): 66.4 mg/dL
TG ([…], time 14 day): 148.8 mg/dL
TP ([…], time 14 day): 5.9 g/dL
gamma-GTP ([…], time 14 day): 1 IU/L
A/G ([…], time 28 day): 1.3
ALP ([…], time 28 day): 551.8 IU/L
ALT ([…], time 28 day): 32.8 IU/L
AST ([…], time 28 day): 54.8 IU/L
BUN ([…], time 28 day): 16.6 mg/dL
CRE ([…], time 28 day): 0.5 mg/dL
Ca ([…], time 28 day): 10.4 mg/dL
Cl ([…], time 28 day): 102.4 meq/L
DBIL ([…], time 28 day): 0.1 mg/dL
GLC ([…], time 28 day): 218 mg/dL
IP ([…], time 28 day): 6.5 mg/dL
K ([…], time 28 day): 3.6 meq/L
LDH ([…], time 28 day): 125 IU/L
Na ([…], time 28 day): 140 meq/L
PL ([…], time 28 day): 162.4 mg/dL
RALB ([…], time 28 day): 3.4 g/dL
TBIL ([…], time 28 day): 0.2 mg/dL
TC ([…], time 28 day): 78.4 mg/dL
TG ([…], time 28 day): 139.2 mg/dL
TP ([…], time 28 day): 6.1 g/dL
gamma-GTP ([…], time 28 day): 1.2 IU/L
